From the CheMixHub viscosity set

Experiment: xn = mol fraction of the nth substance listed

CCCCCO + CCCCCCC
Details	viscosity [mPa·s]
293.15 K, 100 kPa, x2 = 0.0249	3.71
293.15 K, 100 kPa, x2 = 0.081	3.099
293.15 K, 100 kPa, x2 = 0.1471	2.521
293.15 K, 100 kPa, x2 = 0.259	1.798
293.15 K, 100 kPa, x2 = 0.3365	1.429
293.15 K, 100 kPa, x2 = 0.3987	1.196
293.15 K, 100 kPa, x2 = 0.4734	0.975
293.15 K, 100 kPa, x2 = 0.5627	0.776
293.15 K, 100 kPa, x2 = 0.6484	0.641
293.15 K, 100 kPa, x2 = 0.734	0.544
293.15 K, 100 kPa, x2 = 0.8184	0.474
293.15 K, 100 kPa, x2 = 0.9043	0.42
293.2 K, 101 kPa, x1 = 0.3	0.655
293.8 K, 101 kPa, x1 = 0.5	0.924
293.9 K, 101 kPa, x1 = 0.051	0.491
298.15 K, 100 kPa, x2 = 0.0249	3.218
298.15 K, 100 kPa, x2 = 0.081	2.702
298.15 K, 100 kPa, x2 = 0.1471	2.211
298.15 K, 100 kPa, x2 = 0.259	1.591
298.15 K, 100 kPa, x2 = 0.3365	1.277
298.15 K, 100 kPa, x2 = 0.3987	1.076
298.15 K, 100 kPa, x2 = 0.4734	0.884
298.15 K, 100 kPa, x2 = 0.5627	0.712
298.15 K, 100 kPa, x2 = 0.6484	0.594
298.15 K, 100 kPa, x2 = 0.734	0.507
298.15 K, 100 kPa, x2 = 0.8184	0.445
298.15 K, 100 kPa, x2 = 0.9043	0.396
298.15 K, 101.33 kPa, x1 = 0.0652	0.4117
298.15 K, 101.33 kPa, x1 = 0.1304	0.4449
298.15 K, 101.33 kPa, x1 = 0.2489	0.5244
298.15 K, 101.33 kPa, x1 = 0.3595	0.6427
298.15 K, 101.33 kPa, x1 = 0.4654	0.8116
298.15 K, 101.33 kPa, x1 = 0.5682	1.041
298.15 K, 101.33 kPa, x1 = 0.6617	1.338
298.15 K, 101.33 kPa, x1 = 0.7552	1.713
298.15 K, 101.33 kPa, x1 = 0.8805	2.418
298.15 K, 101.33 kPa, x1 = 0.9606	3.057
303.15 K, 100 kPa, x2 = 0.0249	2.804
303.15 K, 100 kPa, x2 = 0.081	2.365
303.15 K, 100 kPa, x2 = 0.1471	1.945
303.15 K, 100 kPa, x2 = 0.259	1.415
303.15 K, 100 kPa, x2 = 0.3365	1.145
303.15 K, 100 kPa, x2 = 0.3987	0.971
303.15 K, 100 kPa, x2 = 0.4734	0.805
303.15 K, 100 kPa, x2 = 0.5627	0.655
303.15 K, 100 kPa, x2 = 0.6484	0.551
303.15 K, 100 kPa, x2 = 0.734	0.474
303.15 K, 100 kPa, x2 = 0.8184	0.417
303.15 K, 100 kPa, x2 = 0.9043	0.371
308.15 K, 100 kPa, x2 = 0.0249	2.453
308.15 K, 100 kPa, x2 = 0.081	2.08
308.15 K, 100 kPa, x2 = 0.1471	1.72
308.15 K, 100 kPa, x2 = 0.259	1.262
308.15 K, 100 kPa, x2 = 0.3365	1.03
308.15 K, 100 kPa, x2 = 0.3987	0.879
308.15 K, 100 kPa, x2 = 0.4734	0.739
308.15 K, 100 kPa, x2 = 0.5627	0.604
308.15 K, 100 kPa, x2 = 0.6484	0.515
308.15 K, 100 kPa, x2 = 0.734	0.438
308.15 K, 100 kPa, x2 = 0.8184	0.39
308.15 K, 100 kPa, x2 = 0.9043	0.349
308.15 K, 101.33 kPa, x1 = 0.0652	0.368
308.15 K, 101.33 kPa, x1 = 0.1304	0.3956
308.15 K, 101.33 kPa, x1 = 0.2489	0.4627
308.15 K, 101.33 kPa, x1 = 0.3595	0.5523
308.15 K, 101.33 kPa, x1 = 0.4654	0.6821
308.15 K, 101.33 kPa, x1 = 0.5682	0.841
308.15 K, 101.33 kPa, x1 = 0.6617	1.062
308.15 K, 101.33 kPa, x1 = 0.7552	1.353
308.15 K, 101.33 kPa, x1 = 0.8805	1.931
308.15 K, 101.33 kPa, x1 = 0.9606	2.382
313.15 K, 100 kPa, x2 = 0.0249	2.155
313.15 K, 100 kPa, x2 = 0.081	1.836
313.15 K, 100 kPa, x2 = 0.1471	1.526
313.15 K, 100 kPa, x2 = 0.259	1.132
313.15 K, 100 kPa, x2 = 0.3365	0.936
313.15 K, 100 kPa, x2 = 0.3987	0.798
313.15 K, 100 kPa, x2 = 0.4734	0.674
313.15 K, 100 kPa, x2 = 0.5627	0.557
313.15 K, 100 kPa, x2 = 0.6484	0.485
313.15 K, 100 kPa, x2 = 0.734	0.414
313.15 K, 100 kPa, x2 = 0.8184	0.366
313.15 K, 100 kPa, x2 = 0.9043	0.327
